The supplement of paper PMC10307832

Columns and labels:
Test in all cases: relative viability (nuclei count vs DMSO), 5 days (fraction); higher = more cells survive
[1] = compound: C1=CC=C2C(=C1)C=CC(=C2SSC3=C(C=CC4=CC=CC=C43)O)O [IPA-3] + C[C@]1(O)C[C@@H](c2nc(-c3ccc4ccc(-c5ccccc5)nc4c3)c3c(N)nccn32)C1 [Linsitinib] (partner 1 µM)
Method in brief: (§1)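 Relative viability equals treated-well nuclei counts divided by vehicle-well nuclei counts. Counts came from 4× images of lung cancer cell lines grown in 1536-well plates for 5 days after pin-tool dosing on the day after seeding. Dosing used one drug alone or a fixed anchor-drug dose plus five library-drug doses (not always all listed) in √10 steps, and values are medians of duplicate plates.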

[2] = compound: Cn1c(Nc2ccc(C(F)(F)F)cc2)nc2cc(Oc3ccnc(-c4ncc(C(F)(F)F)[nH]4)c3)ccc21 [RAF265] + Cc1nc(NC(=O)N2CCC[C@H]2C(N)=O)sc1-c1ccnc(C(C)(C)C(F)(F)F)c1 [Alpelisib] (partner 2 µM)
Method in brief: as §1

[3] = compound: Cc1ccc(-n2nc(C(C)(C)C)cc2NC(=O)Nc2ccc(OCCN3CCOCC3)c3ccccc23)cc1 [Doramapimod] + CC1(C)CCC(c2ccc(Cl)cc2)=C(CN2CCN(c3ccc(C(=O)NS(=O)(=O)c4ccc(N[C@H](CCN5CCOCC5)CSc5ccccc5)c(S(=O)(=O)C(F)(F)F)c4)cc3)CC2)C1 [Navitoclax] (partner 0.5 µM)
Method in brief: as §1

[4] = compound: Cn1c(Nc2ccc(C(F)(F)F)cc2)nc2cc(Oc3ccnc(-c4ncc(C(F)(F)F)[nH]4)c3)ccc21 [RAF265] + COc1cc2c(Oc3ccc(NC(=O)C4(C(=O)Nc5ccc(F)cc5)CC4)cc3F)ccnc2cc1OCCCN1CCOCC1 [Foretinib] (partner 0.25 µM)
Method in brief: as §1

Cell Line | relative viability ([1]; first compound 0.2 µM) | relative viability ([1]; first compound 0.6325 µM) | relative viability ([1]; first compound 2 µM) | relative viability ([1]; first compound 6.325 µM) | relative viability ([1]; first compound 20 µM) | relative viability ([2]; first compound 0.01 µM) | relative viability ([2]; first compound 0.03162 µM) | relative viability ([2]; first compound 0.1 µM) | relative viability ([2]; first compound 0.3162 µM) | relative viability ([2]; first compound 1 µM) | relative viability ([3]; first compound 0.02 µM) | relative viability ([3]; first compound 0.06325 µM) | relative viability ([3]; first compound 0.2 µM) | relative viability ([3]; first compound 0.6325 µM) | relative viability ([3]; first compound 2 µM) | relative viability ([4]; first compound 0.01 µM) | relative viability ([4]; first compound 0.03162 µM) | relative viability ([4]; first compound 0.1 µM) | relative viability ([4]; first compound 0.3162 µM) | relative viability ([4]; first compound 1 µM)
EKVX | 1.1 | 1.06 | 1.05 | 0.97 | 1.43 | 0.863 | 0.842 | 0.944 | 0.516 | 0.624 | 0.677 | 0.915 | 0.936 | 0.895 | 0.934 | 1.21 | 0.676 | 0.963 | 0.419 | 0.715
IA-LM | 0.922 | 0.526 | 0.639 | 0.505 | 0.404 | 0.774 |  | 0.587 | 0.752 | 0.44 | 0.676 | 0.567 | 0.804 | 0.807 | 0.577 | 1.21 | 0.933 | 1 | 0.946 | 0.769
NCI-H520 | 1.02 | 0.951 | 1.03 | 0.855 | 0.982 | 0.819 | 0.754 | 0.889 | 0.916 | 0.534 | 1 | 1.11 | 1.08 | 1.18 | 1.02 | 0.763 | 0.585 | 0.749 | 0.819 | 0.474
NCI-H1703 | 1.1 | 0.39 | 0.974 | 0.787 | 1.05 | 0.213 | 0.298 | 0.251 | 0.274 | 0.206 | 0.957 | 0.944 | 1.16 | 1.54 | 0.896 | 0.335 | 0.318 | 0.351 | 0.357 | 0.253
LCLC-97TM1 | 0.208 | 0.215 | 0.181 | 0.202 | 0.215 | 0.274 | 0.194 | 0.2 | 0.144 | 0.125 | 0.372 | 0.434 | 0.525 | 0.51 | 0.371 | 0.993 | 0.811 | 0.967 | 0.811 | 0.448
NCI-H1793 | 1.24 | 0.794 | 0.977 | 1.06 | 1.15 | 0.709 | 0.914 | 0.66 | 0.477 | 0.293 | 0.545 | 0.303 | 0.378 | 0.416 | 0.502 | 0.632 | 0.616 | 0.624 |  | 0.261
NCI-H3122 | 1.05 | 1.01 | 0.961 | 1.08 | 1.05 | 0.909 | 0.868 | 0.783 | 0.559 | 0.417 | 1.03 | 0.992 | 1 | 1.09 | 0.914 | 0.963 | 1 | 1 | 0.953 | 0.635
PC-14 | 0.945 | 0.96 | 1.01 | 0.922 | 1.09 | 0.964 | 0.907 | 0.854 | 0.35 | 0.579 | 1.02 | 1.02 | 0.935 | 1.09 | 0.799 | 0.969 | 1.01 | 0.928 |  | 0.817
EPLC-272H | 1.16 | 1.13 | 1.22 | 1.14 | 1.41 | 0.847 | 0.792 | 0.801 | 0.478 | 0.367 | 1.14 | 0.943 | 1.12 | 1.23 | 0.978 | 0.721 | 0.39 | 0.506 | 0.208 | 0.135
A-427 | 1.13 | 0.951 | 1.18 | 1.12 | 1.13 | 1.17 | 1.01 | 0.976 | 0.723 | 0.402 | 1.02 | 1.01 | 1.02 |  | 1.08 | 1.12 | 0.962 | 0.846 | 0.26 | 0.204
